According to patent publication US20160339187A1, “DEVICES AND METHODS FOR CONTROLLED DRUG DELIVERY OF WET AEROSOLS” (THE RESEARCH FOUNDATION FOR THE STATE UNIVERSITY OF NEW YORK, priority 2014, published 2016):

What was measured:
[1] = 15 normal subjects, Aeroneb nebulizer with Idehaler; cited from earlier work
[2] = Gamma camera deposition in patients inhaling aerosol during tidal breathing from AeroTech II nebulizers; type: in vivo, human; conditions: group of patients, AeroTech II type nebulizers

upper airway deposition as a percentage of total deposition [2] | Compound | oropharyngeal activity (average) [1]
 | NCC[C@H](O)C(=O)N[C@@H]1C[C@H](N)[C@@H](O[C@H]2O[C@H](CN)[C@@H](O)[C@H](O)[C@H]2O)[C@H](O)[C@H]1O[C@H]1O[C@H](CO)[C@@H](O)[C@H](N)[C@H]1O [amikacin] | 29.4±7.4%
≤ 5% | N=C(N)c1ccc(OCCCCCOc2ccc(C(=N)N)cc2)cc1 [pentamidine] | 
